From PubChem BioAssay (NCI) come the findings set out here.

Among the test systems are HCT-116 colon; OVCAR-8 ovarian; SK-MEL-28 melanoma; SNB-75 CNS; SR leukemia; SW-620 colon; TK-10 renal; U251 CNS; UACC-257 melanoma; UO-31 renal.
What all share (experiment): NCI-60 cell line screen, 48 h

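Test compounds were applied to cells in 96-well plates for 48 hours at 5 doses. At the GI50, growth is halved. TGI denotes the concentration required for complete inhibition of growth.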 Bounds are passed on as bounds.

On to `C/C=C(\C)C(=O)O[C@@H]1C(O)[C@H]2OC(COC(=O)CCC(=O)CCCCCC[C@H](CCCCC)O[C@@H]3OC(C)[C@H](OC(C)=O)C(O)[C@H]3O2)[C@H]1OC(=O)/C=C/c1ccccc1` (stereo not given in full), for which the GI50 is < 0.01 µM in the assay with HCT-116 colon; < 0.0341 µM in the assay with OVCAR-8 ovarian; 0.021 µM in the assay on SK-MEL-28 melanoma; < 0.01 µM with SNB-75 CNS; < 0.012 µM in the assay with SR leukemia; < 0.0114 µM with SW-620 colon. Also, the GI50 was 0.0235 µM with TK-10 renal, < 0.01 µM in the assay on U251 CNS, < 0.0109 µM in the assay on UACC-257 melanoma and < 0.01 µM with UO-31 renal. The TGI with HCT-116 colon is > 33.6 µM; in the assay with OVCAR-8 ovarian, > 51.4 µM; with SK-MEL-28 melanoma, 9.59 µM; with SNB-75 CNS, 0.747 µM; with SR leukemia, 3.18 µM; in the assay on SW-620 colon it was > 60 µM. The TGI with TK-10 renal turned out to be 5.98 µM; in the assay on U251 CNS, 6.39 µM; in the assay on UACC-257 melanoma, 1.04 µM; in the assay on UO-31 renal, 8.34 µM.
As for `CN(C)CCNC(=O)c1cccc2cc3ccccc3nc12`, the GI50 is 0.531 µM in the assay with HCT-116 colon; 0.62 µM with OVCAR-8 ovarian; 1.97 µM with SK-MEL-28 melanoma; 2.01 µM with SNB-75 CNS; 0.338 µM in the assay on SR leukemia; 0.775 µM in the assay with SW-620 colon. The GI50 was 1.23 µM in the assay on TK-10 renal, 1.02 µM in the assay on U251 CNS, 1.6 µM in the assay on UACC-257 melanoma and 1.11 µM with UO-31 renal. The TGI is 4.75 µM in the assay on HCT-116 colon; 7.73 µM in the assay on OVCAR-8 ovarian; 4.41 µM in the assay with SK-MEL-28 melanoma; 6.22 µM in the assay on SNB-75 CNS; 8.1 µM in the assay on SR leukemia; 3.17 µM with SW-620 colon. The TGI in the assay with TK-10 renal amounted to 4.08 µM; with U251 CNS, 4.91 µM; in the assay on UACC-257 melanoma, 3.55 µM; with UO-31 renal it was 4.06 µM.
In the case of `FC(F)(F)c1ccc(C=NC23CC4CC(CC(C4)C2)C3)cc1`, the TGI in the assay with HCT-116 colon, with OVCAR-8 ovarian, with SK-MEL-28 melanoma, with SNB-75 CNS, in the assay on SR leukemia and with SW-620 colon was > 100 µM throughout. Moreover, the TGI in the assay with TK-10 renal, in the assay with U251 CNS, with UACC-257 melanoma and in the assay with UO-31 renal was > 100 µM in each case.
Consider `NCCNCC(O)CO` (stereo not given), for which the TGI in the assay on HCT-116 colon, in the assay with OVCAR-8 ovarian, in the assay on SK-MEL-28 melanoma, in the assay on SNB-75 CNS, with SR leukemia and in the assay with SW-620 colon was > 100 µM throughout. Also, the TGI with TK-10 renal, with U251 CNS, in the assay on UACC-257 melanoma and in the assay with UO-31 renal was > 100 µM in each case.
Consider `COC(=O)c1ccccc1NC(=O)C(=O)CC(=O)c1ccccc1NC1=CC(=O)C(=O)c2ccccc21`, for which the TGI in the assay on HCT-116 colon is 20 µM; with OVCAR-8 ovarian, 60.9 µM; in the assay on SK-MEL-28 melanoma it was 29.4 µM; with SNB-75 CNS, 40.3 µM; in the assay on SR leukemia, > 100 µM; in the assay on SW-620 colon, 23 µM. The TGI in the assay with TK-10 renal is > 95.1 µM; in the assay on U251 CNS it was 67.4 µM; in the assay on UACC-257 melanoma it was 14.8 µM; in the assay with UO-31 renal, 69 µM.
In the case of `N#C/C(=C/c1cccnc1)C(=O)c1ccccc1`, the TGI in the assay with HCT-116 colon, in the assay with OVCAR-8 ovarian, in the assay on SK-MEL-28 melanoma, in the assay with SNB-75 CNS, in the assay with SR leukemia and with SW-620 colon was > 100 µM each time. Further, the TGI in the assay on TK-10 renal, in the assay on U251 CNS, with UACC-257 melanoma and in the assay on UO-31 renal was > 100 µM in each case.
Regarding `O=C(Oc1ccc([N+](=O)[O-])cc1)N1CCN(Cc2cccc(Oc3ccccc3)c2)CC1`, the GI50 in the assay with HCT-116 colon is 44.9 µM; in the assay on OVCAR-8 ovarian, > 100 µM; in the assay on SK-MEL-28 melanoma, > 100 µM; in the assay on SNB-75 CNS it was > 100 µM; with SR leukemia it was 22.5 µM; with SW-620 colon it was > 100 µM. Moreover, the GI50 in the assay on TK-10 renal is > 75.9 µM; with U251 CNS, > 100 µM; in the assay on UACC-257 melanoma, > 76.9 µM; with UO-31 renal it was 8.17 µM. Further, the TGI with HCT-116 colon, in the assay with OVCAR-8 ovarian, in the assay on SK-MEL-28 melanoma, in the assay with SNB-75 CNS, with SR leukemia and in the assay on SW-620 colon was > 100 µM throughout. The TGI in the assay on TK-10 renal, in the assay on U251 CNS, in the assay with UACC-257 melanoma and in the assay on UO-31 renal was > 100 µM in each case.
Consider `Nc1nc2c(c3ncccc13)C(c1cccc(Cl)c1)Cc1ncccc1-2` (stereo not given), for which the GI50 is 1.36 µM in the assay with HCT-116 colon; 3.95 µM in the assay on OVCAR-8 ovarian; 8.17 µM with SK-MEL-28 melanoma; 1.12 µM with SNB-75 CNS; 0.469 µM with SR leukemia; 0.88 µM in the assay with SW-620 colon. The GI50 is 8.11 µM with TK-10 renal, 2.17 µM in the assay with U251 CNS, 15 µM with UACC-257 melanoma and 3.98 µM in the assay with UO-31 renal. For the same molecule, the TGI in the assay on HCT-116 colon is 14.5 µM; in the assay on OVCAR-8 ovarian, 37.5 µM; with SK-MEL-28 melanoma, 28.4 µM; with SNB-75 CNS it was 8.17 µM; in the assay with SR leukemia, 14.3 µM; in the assay on SW-620 colon it was 30.8 µM. Further, the TGI in the assay with TK-10 renal was found to be 65.7 µM; in the assay with U251 CNS, 15.4 µM; in the assay on UACC-257 melanoma it was 44.5 µM; in the assay on UO-31 renal, 34.9 µM.
Regarding `CC1CCCC(C(O)CC2CC(=O)N(c3ccccc3)C(=O)C2)C1=O` (stereo not given), the TGI in the assay with HCT-116 colon, in the assay on OVCAR-8 ovarian, with SK-MEL-28 melanoma, in the assay on SNB-75 CNS, in the assay on SR leukemia and in the assay on SW-620 colon was > 100 µM throughout. The TGI with TK-10 renal, in the assay with U251 CNS, with UACC-257 melanoma and with UO-31 renal was > 100 µM throughout.
Regarding `CCCCn1c2c(c3ccccc3c1=O)C(=O)c1ccccc1-2`, the TGI in the assay on HCT-116 colon, in the assay with OVCAR-8 ovarian, in the assay with SK-MEL-28 melanoma, in the assay with SNB-75 CNS, in the assay with SR leukemia and in the assay on SW-620 colon was > 100 µM throughout. Further, the TGI in the assay with TK-10 renal, in the assay on U251 CNS, in the assay with UACC-257 melanoma and with UO-31 renal was > 100 µM throughout.
